US10793509B2, “Compounds useful in the treatment of neoplastic diseases” (UNIVERSITÄT ZU KÖLN, priority 2013, dated 2020)
“And” between values parts separate entries of the source, which are not always exact repeats. Equal entries are not always repeated.

What was measured:
Primary CLL cells = assay: AnnexinV/PI assay on primary CLL cells; assay type: cell-based, human
Procedure: PBMCs or CLL cells (5*10^6 cells/ml) were incubated for 24 h with different compounds at concentrations from 0.01 to 100 μM. Cell survival was normalized to DMSO control [vehicle]. See Example 1.
Primary CLL or peripheral blood mononuclear cells of healthy donors (5*10^6/ml) were incubated for 24 h with different compounds according to the invention and NO-ASA as a control. The compounds were added in different concentrations, in particular in concentrations from 0.01-100 μM. Cell survival was assessed by AnnexinV/PI assay (Kit commercially available, e.g. by Biotium Inc, USA; or Phoenix Flow Systems, US), the results were normalized to DMSO control [vehicle] and dose response curves were calculated using a non-linear regression model.

[1] = test system: JVM3 cells (human chronic B cell leukemia cell line); assay: CLL xenograft mouse model (JVM3 cells subcutaneously in SCID beige mice); assay type: in vivo
Procedure: Treatment with B9 leads to significant tumor inhibition compared to vehicle control (p=0.015) after nine days with increasing significance up to day 19 of treatment (p=0.0003). IRmax value of 65% for B9 over vehicle control was determined. *=p≤0.05, **=p≤0.01, ***=p≤0.001 calculated by unpaired two-tailed students test, †=death, IR=Inhibition ratio.
Due to its favorable characteristics B9 was chosen for in vivo testing in a CLL xenograft mouse model. JVM3 cells (human chronic B cell leukemia cell line) were injected subcuntaneously into the flank of immunincompetent mice. The developing solid tumor was treated with intraperitoneal injections of 8 mg/kg of compound B9 or sesame oil (vehicle) every other day (see FIG. 4).
1*10^7 JVM3 cells were injected subcutaneously in SCID beige mice (CB17.Cg-Prkdc^scidLyst^bg-J/Crl). Tumors were measured every other day by caliper and the tumor volume was calculated V=(Length*(0.5*Width^2)). Mice carrying a tumor of more than 50 mm^3 were treated every other day with either sesame oil (vehicle control) or with 8 mg/kg B9 solved in sesame oil via intraperitoneal injections. The abortion criteria given by the GV-SOLAS for tumor bearing mice were applied. p-values were calculated using unpaired two-tailed Students test.

MEC-1 = assay: CellTiter-Glo ATP assay, MEC-1 cell line; assay type: cell-based; details: Homo sapiens, MEC1; 24 h, CellTiter-Glo
Procedure: (§1) Several cell lines (n=5) were treated with different concentrations of p-NO-ASA, B9, B12 and B13 ranging between 0.01 μM and 1000 μM for 24 hours followed by addition of luminogenic CellTiter-Glo®-reagent. […] For each cell line the order of used compound in the bar chart is from left to right as following: p-NO-ASA, B9, B12, B13.
(§2) Treatment success in CLL may depend on cytogenetic and molecular parameters as for instance del13q or TP53 gene disruption. Therefore, the NO-ASA derivatives were examined on (chronic) B cell lymphoma cell lines with different geno- and phenotypes (JVM3, EHEB, U2932, MEC-1, GRANTA-519). The cells were treated with concentrations between 0.01 and 1000 μM for 24 h followed by the addition of luminogenic CellTiter-Glo® reagent.

GRANTA-519 = assay: CellTiter-Glo ATP assay, GRANTA-519 cell line; assay type: cell-based; details: Homo sapiens, Granta-519; 24 h, CellTiter-Glo
Procedure: as §1, §2

JVM-3 = assay: CellTiter-Glo ATP assay, JVM-3 cell line; assay type: cell-based, human; details: 24 h, 0.01-1000 μM
Procedure: as §1, §2

U2932 = assay: CellTiter-Glo ATP assay, U2932 cell line; assay type: cell-based; details: 24 h, 0.01-1000 μM
Procedure: as §1, §2

EHEB = assay: CellTiter-Glo ATP assay, EHEB cell line; assay type: cell-based; details: 24 h, 0.01-1000 μM
Procedure: as §1, §2

[2] = test system: colon carcinoma cell line SW480; assay: cells; assay type: cell-based; details: Homo sapiens, SW480, 24 h, read-out: Viability assay EC50, SW480
Procedure: The cell lines (n=5) were treated with different concentrations of p-NO-ASA, B9, B12 and B13 ranging between 0.01 μM and 100 μM for 24 hours followed by addition of luminogenic CellTiter-Glo®-reagent (see Example 5).
(§3) In the following experiment the possible therapeutic window for NO-ASA derivatives was investigated. […] The melanoma cell line MelJuso, the colon carcinoma cell line SW480, the small cell lung cancer cell line HCC44, the ovarian adenocarcinoma cell line COLO704 and the acute myeloid leukemia cell line SH2 were treated with concentrations of p-NO-ASA and B9, B12 and B13 in a range between 0.01 μM and 100 μM for 24 h, followed by addition of luminogenic CellTiter-Glo® reagent.
(§4) Table accompanying Example 5. Overview of the EC50 values of cell survival analyzed by ATP content and Annexin V/PI assay. n.t.; not tested

[3] = test system: acute myeloid leukemia cell line SH2; assay: Viability assay (ATP content, CellTiter-Glo), SH2; assay type: cell-based; details: 24 h
Procedure: as §3, §4

[4] = test system: melanoma cell line MelJuso; assay: Viability assay (ATP content, CellTiter-Glo), MelJuso; assay type: cell-based; details: Homo sapiens, MEL-JUSO, 24 h
Procedure: as §3, §4

[5] = test system: ovarian adenocarcinoma cell line COLO704; assay: Viability assay (ATP content, CellTiter-Glo), COLO704; assay type: cell-based; details: COLO 704, 24 h
Procedure: as §3, §4

[6] = test system: melanoma cell line MelJuso; assay: Annexin V/PI assay, MelJuso; assay type: cell-based; details: Homo sapiens, MEL-JUSO, 24 h
[7] = test system: several cancer cell lines; assay: Apoptosis (Annexin V/PI) assay, panel of cancer cell lines; assay type: cell-based; details: range over the cancer cell lines, 24 h; read-out: concentrations inducing apoptosis in different diseases (apoptosis array)
[8] = test system: phosphorylated NFkappaBp65 protein; assay: Western blot of NFkappaB phosphorylation status in CLL cells; assay type: cell-based, human; details: 3 h
Procedure: CLL cells were treated with B1, B9, B12 and B13 (0.1 μM, 1 μM, 10 μM) for 3 h. Untreated and DMSO (1%) treated cells served as control. GAPDH=loading control.
The BCR signalling pathway plays an important pathogenic role in CLL and lymphomas leading often to a constitutive active NFkappaB (in this state NFkappaB is phosphorylated). Therefore the influence of the derivatives on the phosphorylation status of NFkappaB was analyzed by Western Blot. CLL cells were treated with 0.1 μM, 1 μM or 10 μM of each derivate, respectively, for 3 h. CLL cells were treated with B1, B9, B12 and B13 (0.1 μM, 1 μM, 10 μM) for 3 h. Untreated and DMSO (1%) treated cells served as control. GAPDH=loading control.

[9] = mice, 8 mg/kg i.p. every other day

SMILES: O=C(Oc1ccc(CO[N+](=O)[O-])cc1)c1ccccc1 [B9, 4-((nitrooxy)methyl)phenyl benzoate]
- selectivity for CLL cells compared to PBMCs (Primary CLL cells; FIG. 3, sensitivity of CLL cells vs PBMCs, 24 h): selective for CLL cells
- EC50 (Primary CLL cells; Homo sapiens, CLL cell, 24 h incubation, 0.01-100 μM, 5*10^6 cells/ml, normalized to DMSO control, read-out: AnnexinV/PI assay EC50 Primary CLL): 1850 nM
- Inhibition ratio of tumor growth (IR, IRmax) over vehicle control ([1]; 8 mg/kg i.p. every other day in sesame oil, highest at day 17): 65.33% and 65%
- tumor growth ([1]; 8 mg/kg i.p. every other day vs sesame oil vehicle): significant reduction in tumor growth
- tumor volume ([1]; Day 9 of treatment, 8 mg/kg i.p. every other day): 82.97 mm^3
- bodyweight [1, 9]: A reduction of bodyweight was not observed
- severe side effects [1, 9]: Severe side effects were not observed
- mobility after treatment ([1]; mice, 8 mg/kg i.p. every other day, drinking and feeding normally): slightly reduced mobility for 15 to 30 min
- EC50 (MEC-1): 6.62 µM
- EC50 (GRANTA-519): 2280 nM
- ATP content in JVM-3 (JVM-3): reduced ATP content
- ATP content in U2932 (U2932): reduced ATP content
- ATP content in EHEB (EHEB): reduced ATP content
- EC50 [2]: 31.8 µM
- EC50 [3]: 160 nM
- EC50 [4]: 890 nM
- EC50 [5]: 4.33 µM
- EC50 [6]: 8.76 µM
- EC50 [7]: 1 to 9 µM
- reduction of NFkappaB activity (phosphorylated NFkappaBp65) ([8]; CLL cells, 0.1, 1, 10 μM): concentration dependent reduction
- concentration inducing the reduction of NFkappaB p65 protein ([8]; CLL cells): 10 µM
